From US6096529A, “Recombinant α-2,3-sialyltransferases and their uses” (priority 1997, dated 2000)

Legend:
Format in all cases: biochemical
[1] = molecular target: T1, purified recombinant α-2,3-sialyltransferase (Neisseria meningitidis serogroup B, UniProt P72097); test: Enzymatic properties of the purified recombinant α-2,3-sialyltransferase (standard assay); settings: for inhibition at 1000 µM: 1 mM, standard assay; for activity stimulated by presence: 20 mM
T1 construct: made in house; host or cells: E. coli BMH71-18/pNST-18
Description: (§1) Measurement of Sialyltransferase Activity and Survey of Oligosaccharide Acceptors--FCHASE-labelled oligosaccharides were prepared as described above, while the APTS-labelled oligosaccharides were prepared by reductive amination of reducing saccharides according to the method described by Guttman et at. (Anal. Biochem233:234 (1996)) The Gal-β-APTS acceptor was derived from labelling of lactose; the Gal-α-APTS acceptor was derived from labelling of melibiose; the N-acetyllactosamine (LacNAc) acceptor was synthesized by APTS labelling of chitobiose, followed by enzymatic modification with bovine β-Galactosyl transferase to produce the LacNAc moiety-, the Gal-α-1.4-Gal-β acceptor was enzymatically synthesized from β-Gal-APTS with the α-1,4-galactosyltransferase from N. meningitidis. All of the reductive amination products were purified by gel permeation chromatography on Toyopearl HW4OF (Sigma-Aldrich), 1.5 cm×15 cm column, using water as the eluant. It should be mentioned that all of these molecules have the terminal reducing sugar ring opened in the process of labelling. APTS-saccharides were quantitated by measuring the A455, and using an extinction coefficient of 17160 M^-1 cm^-1 . The TMR-labelled oligosaccharides were prepared as described by Zhao et al. (1994) Glycobiology 4:239-242. For the TMR labelled acceptors we used an extinction coefficient of 80,000 M^-1 cm^-1 for quantitation. The sialyltransferase activity was routinely measured using 0.5 mM FCHASE-N-acetyllactosamine as the acceptor and the assay conditions as described above. For measurement of Km, and kcat values, assays were performed with the APTS labelled saccharides at room temperature. Assays were monitored so that for all acceptor concentrations, no more than 10% conversion to product occurred. The ranges of acceptor and donor concentrations were determined empirically, then a range spanning 0.2Km, up to 5Km, was used to obtain the values. Data were examined using the Grafit™3.0 software package (Erithacus Software, London, UK).
(§2) The reaction mixtures from the FCHASE- and APTS-labelled acceptors were analyzed by capillary electrophoresis performed with a Beckman instruments (Fullerton, Calif.) P/ACE 5510 equipped with a 3 mW Argon-ion laser induced fluorescence detector, λ excitation=488 nm λ emission=520 nm. The Capillary was of bare silica 75 μ X 57 cm, with the detector at 50 cm. The capillary was conditioned before each run by washing with 0.2 M NaOH for 2 min., water for 2 min., and either 20 mM sodium phosphate buffer, pH 7.4 or sodium tetraborate, pH 9.3, 2 min. Samples were introduced by pressure injection for 2-5 seconds, and the separation was performed at 18 kV, 75 μA. Peak integration was performed with the Beckman PACE-Station software (version 1).

[2] = molecular target: N. meningitidis α-2,3-sialyltransferase (Neisseria meningitidis serogroup B, UniProt P72097); set-up: b112 rows possibly recombinant MC58 lst (pNST-01) in E. coli extracts; settings: for activity stimulated by addition: 10 mM, enzyme from N. meningitidis extracts; for ratios of activity as acceptor: synthetic saccharide acceptors, relative to FCHASE-aminophenyl-LacNAc
Description: Measurement of Sialyltransfrase Activity--The sialyltransferase activity from N. meningitidis MC58L3, 406Y L3 and M982B L7, and the E. coli carrying pNST plasmids was measured in toluene treated cells or cell free extracts prepared as described previously (Wakarchuk, et al. (1996) J. Biol. Chem. in Press) acceptors were derived from aminophenylglycosides reacted with 6(5-fluorescein-carboxamnido)-hexanoic acid succimidyl ester (FCHASE) and were prepared as previously described (Wakarchuk, et al. (1996) J. Biol. Chem. in Press). Reactions for the enzyme were performed at 37° C. in 20 μl of MES buffer, 50 mM pH 6.0, 10 mM MnCl2, with 0.2 or 1.0 mM labeled acceptor, 0.2 mM CMP-Neu5Ac donor and various amounts of enzyme, either from crude bacterial extracts, or extracts of recombinant E. coli with the cloned gene. The recombinant enzymes were assayed for 10-120 minutes, while extracts from N. meningitidis were incubated 1-15 h. The reactions were terminated by diluting the reaction 1:100 with 10 mM NaOH. These samples were then diluted appropriately in water prior to analysis by capillary electrophoresis.
Capillary electrophoresis (CE) and was performed with a Beckman (Fullerton, Calif.) P/ACE 5510 equipped with a 3 mW Argon-ion laser induced fluorescence detector, λ excitation=488 nm, λ emission=520 nm. The capillary was bare silica 75 μ X 47 cm, with the detector at 40 cm. The capillary was conditioned before each run by washing with 0.2 M NaOH for 2 min., water for 2 min., and 25 mM sodium tetraborate pH 9.4 for 2 min. Samples were introduced by pressure injection for 2-5 seconds, and the separation was performed at 15 kV, 75 μA. Peak integration was performed with the Beckman System Gold (version 8.1) software.

[3] = molecular target: T1, purified recombinant α-2,3-sialyltransferase; test: Determination of kinetic constants with APTS-labelled acceptors; settings: for kcat IKm: apparent, APTS-labelled acceptor, CMP-Neu5Ac 200 μM
Description: as §1, §2

Chain of N. meningitidis α-2,3-sialyltransferase (P72097 whole entry Q29H/E40D/N94K/T242A/K273N): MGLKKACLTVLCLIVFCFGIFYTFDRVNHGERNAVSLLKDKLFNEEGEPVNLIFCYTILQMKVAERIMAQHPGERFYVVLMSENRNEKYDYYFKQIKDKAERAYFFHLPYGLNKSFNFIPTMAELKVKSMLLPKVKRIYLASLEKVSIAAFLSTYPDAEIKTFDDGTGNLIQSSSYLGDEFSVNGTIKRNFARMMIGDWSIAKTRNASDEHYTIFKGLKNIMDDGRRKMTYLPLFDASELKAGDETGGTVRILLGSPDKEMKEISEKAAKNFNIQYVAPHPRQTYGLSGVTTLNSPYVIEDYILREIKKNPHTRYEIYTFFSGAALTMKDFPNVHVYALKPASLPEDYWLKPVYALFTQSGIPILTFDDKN
T1 sequence (P72097 2-371): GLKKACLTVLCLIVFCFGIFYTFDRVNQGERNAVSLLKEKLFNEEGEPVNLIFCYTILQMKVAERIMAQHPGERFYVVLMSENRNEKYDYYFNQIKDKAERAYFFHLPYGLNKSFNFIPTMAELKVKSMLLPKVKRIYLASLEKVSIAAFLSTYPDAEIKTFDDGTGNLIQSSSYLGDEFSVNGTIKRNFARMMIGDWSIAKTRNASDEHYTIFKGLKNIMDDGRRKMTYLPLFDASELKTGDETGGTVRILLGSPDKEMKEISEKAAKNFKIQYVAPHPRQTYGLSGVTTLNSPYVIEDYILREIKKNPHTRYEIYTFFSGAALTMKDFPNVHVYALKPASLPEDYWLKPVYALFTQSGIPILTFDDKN

Nc1ccn([C@@H]2O[C@H](COP(=O)(O)O)[C@@H](O)[C@H]2O)c(=O)n1 [CMP]
inhibition at 1000 µM [1]: 80%

[Cl-].[Cl-].[Mg+2] [MgCl2]
activity stimulated by presence ([1]; purified enzyme): 3 fold
activity stimulated by addition [2]: 2 fold

[Cl][Mn][Cl] [MnCl2]
activity stimulated by presence ([1]; purified enzyme): 4 fold
activity stimulated by addition [2]: 3 fold

O=C(O)CN(CCN(CC(=O)O)CC(=O)O)CC(=O)O [EDTA]
activity in the presence of EDTA ([1]; 5 mM EDTA, purified enzyme): still active
activity in the presence of EDTA ([2]; 5 mM EDTA): active

CC(=O)N[C@H]1[C@H](O[C@@H]([C@H](O)[C@H](CNc2cc(S(=O)(=O)O)c3ccc4c(S(=O)(=O)O)cc(S(=O)(=O)O)c5ccc2c3c54)NC(C)=O)[C@H](O)CO)O[C@H](CO)[C@@H](O[C@@H]2O[C@H](CO)[C@H](O)[C@H](O)[C@H]2O)[C@@H]1O [LacNAc, Gal-β-(1→4)-β-GlcNAc-β-GlcNAc*]
kcat IKm [3]: 1750 M⁻¹ s⁻¹
increase of apparent Kcat/Km ([3]; relative to the terminal Gal-β monosaccharide acceptor): 5 fold

CC(=O)N[C@H]1[C@H]([C@H](O)[C@H](O)CO)O[C@](OP(=O)(O)OC[C@H]2O[C@@H](n3ccc(N)nc3=O)[C@H](O)[C@@H]2O)(C(=O)O)C[C@@H]1O [CMP-Neu5Ac]
substrate inhibition ([3]; as high as 1 mM CMP-Neu5Ac): No significant substrate inhibition

Nc1ccn([C@@H]2O[C@H](COP(=O)(O)OP(=O)(O)O)[C@@H](O)[C@H]2O)c(=O)n1 [CDP]
inhibition at 1000 µM [1]: 40%

O=C(CCCCCNC(=O)c1ccc(-c2c3ccc(=O)cc-3oc3cc(O)ccc23)c(C(=O)O)c1)Nc1ccc(OC2O[C@H](CO)[C@H](O)[C@H](O)[C@H]2O)cc1 (stereo partly shown) [FCHASE-aminophenyl-Gal]
ratios of activity as acceptor [2]: 0.03

O=S(=O)(O)c1cc(NC[C@H](O)[C@@H](O)[C@H](O[C@@H]2O[C@H](CO)[C@H](O)[C@H](O)[C@H]2O)[C@H](O)CO)c2ccc3c(S(=O)(=O)O)cc(S(=O)(=O)O)c4ccc1c2c34 [Gal-β-(1→4)-Glc, Gal-β-(1→4)-Glc*]
kcat IKm [3]: 367 M⁻¹ s⁻¹

O=S(=O)(O)c1cc(NC[C@H](O)[C@@H](O)[C@H](O)[C@H](O)CO[C@H]2O[C@H](CO)[C@H](O)[C@H](O)[C@H]2O)c2ccc3c(S(=O)(=O)O)cc(S(=O)(=O)O)c4ccc1c2c34 [Gal-α-(1→6)-Gal, Gal-α-(1→6)-Gal*]
kcat IKm [3]: 517 M⁻¹ s⁻¹

O=S(=O)(O)c1cc(NC[C@H](O)[C@@H](O)[C@H](O[C@@H]2O[C@H](CO)[C@H](O[C@H]3O[C@H](CO)[C@H](O)[C@H](O)[C@H]3O)[C@H](O)[C@H]2O)[C@H](O)CO)c2ccc3c(S(=O)(=O)O)cc(S(=O)(=O)O)c4ccc1c2c34 [P^k, Gal-α-(1→4)-Gal-(1→4)-β-Glc*]
kcat IKm [3]: 93.3 M⁻¹ s⁻¹

Triton X-100
effect of detergents on the enzyme ([2]; Triton X-100 up to 0.2%): exception

O[C@H](CS)[C@H](O)CS (racemic) [DTT, dithiothreitol]
effect on the activity ([1]; 1-20 mM range): no effect

CC(=O)N[C@H]1[C@H](Oc2ccc(NC(=O)CCCCCNC(=O)c3ccc(-c4c5ccc(=O)cc-5oc5cc(O)ccc45)c(C(=O)O)c3)cc2)O[C@H](CO)[C@@H](O[C@@H]2O[C@H](CO)[C@H](O)[C@H](O)[C@H]2O)[C@@H]1O [FCHASE-aminophenyl-LacNAc]
ratios of activity as acceptor [2]: 1

O=C(CCCCCNC(=O)c1ccc(-c2c3ccc(=O)cc-3oc3cc(O)ccc23)c(C(=O)O)c1)Nc1ccc(O[C@@H]2O[C@H](CO)[C@@H](O[C@@H]3O[C@H](CO)[C@H](O)[C@H](O)[C@H]3O)[C@H](O)[C@H]2O)cc1 [FCHASE-aminophenyl-Lac]
ratios of activity as acceptor [2]: 0.29
